From patent publication US20170165266A1 (Celgene Corporation, priority 2010, published 2017)
Structures can show the parent of a compound that is named as a salt. Values belong to the compound of their own block, whether it stands above or below them.

Experiments:
[1] = test system: bleomycin induced dermal fibrosis; conditions: previously shown, Akhmetshina et al. 2009; cited from earlier work
IL-10 [2] = test: IL-10 production in LPS-stimulated hPBMC (Luminex); type: cell-based, human; conditions: at 10 μM; used as upper constraint for EC50s
Description: (§1) 50 ml human buffy coat was aliquoted 25 ml each into two 50 ml conical tubes and 25 ml sterile HBSS was added to each conical tube. The tubes were gently mixed by inverting. Fifteen ml of room temperature Ficoll-Paque Plus (GE Healthcare (location); cat #17-1440-02) was aliquoted into four 50 ml conical tubes. Then 25 ml of the Buffy coat/HBSS mixture was layered gently and slowly on top of the Ficoll. The samples were centrifuged at 450 rpm for 35 minutes. The top layered containing plasma was pipetted off and discarded. The interface containing mononuclear cells was transferred into two 50 ml conical tubes. Both conical tubes were filled to total volume of 50 ml with HBSS and centrifuged at 1200 rpm for 10 minutes. The cells were washed again in HBSS and spun at 1000 rpm for 10 minutes. Cell pellet was resuspended with 20 ml RPMI complete medium (RPMI/5% human sera/1× pen/strep/glut) and counted.
(§2) One hundred μl (2×10^6/ml) of hPBMCs were added to each well of a 96 well flat-bottom plate (final cell count=2×10^5/well) and incubated at 37° C. for 1 hour. […]
(§3) Supernatant samples were analyzed for cytokines in multiplex format according to the manufacturer's instructions (Millipore, Billerica, Mass. 01821) using a Luminex IS100 instrument. […]

[3] = test system: anti-CD3-stimulated human T cells; test: Cytokine and chemokine production in anti-human CD3-stimulated human T cells (Luminex); type: cell-based; conditions: 48 hours
Description: (§4) The test compounds were prepared as stock solutions of 4 mM in DMSO. T cells were isolated from buffy coat by negative selection using the RosetteSep® T Cell Enrichment Cocktail according to manufacturer's procedures. All 96-well plates were pre-coated with 3 μg/mL anti-human CD3 antibody in 100 μL 1× PBS for 4 hours at 37° C. The plates were washed 3 times with RPMI-1640 Complete Media prior to the T cell assay. The T cells were then plated in anti-CD3-pre-coated plates at a density of 2.5×10^5 cells/well in 180 μL RPMI-1640 Complete Media. […] The final DMSO concentrations were 0.25%. The plates were incubated for 48 hours at 37° C., 5% CO2. After 48 hours, the supernatants were harvested and tested by a multiplex cytometric bead array (CBA) assay for the following cytokines/chemokines: IL-2, IL-3, IL-5, IL-10, IL-13, IL-15, IL-17A, GM-CSF, G-CSF, IFN-γ, TNF-α, and RANTES. The CBA plates were analyzed on the Luminex IS100 instrument. Data from each donor was graphed using GraphPad Prism 5.0 software and expressed as mean pg/mL±SEM and % of DMSO control±SEM.

IL-5 = IL-5 production in anti-human CD3-stimulated human T cells; type: cell-based; conditions: 48 hours
Description: as §4

IL-10 [4] = test: IL-10 production in anti-human CD3-stimulated human T cells; type: cell-based
Description: as §4

IL-8 = IL-8 production in LPS-stimulated hPBMC (Luminex); type: cell-based; conditions: Homo sapiens; LPS 1 ng/ml, 18 hours
Description: as §1, §2, §3

IL-1β = IL-1β production in LPS-stimulated hPBMC (Luminex); type: cell-based; conditions: Homo sapiens; LPS 1 ng/ml, 18 hours
Description: as §1, §2, §3

MIP-1β = MIP-1β production in LPS-stimulated hPBMC (Luminex); type: cell-based; conditions: Homo sapiens; LPS 1 ng/ml, 18 hours
Description: as §1, §2, §3

TNF-α = TNF-α production in LPS-stimulated hPBMC (Luminex); type: cell-based; conditions: Homo sapiens; LPS 1 ng/ml, 18 hours
Description: as §1, §2, §3

NK cell IFN-γ production = test: NK IgG-induced interferon-gamma (IFN-gamma) assay; type: cell-based, human
Description: NK cells from healthy donors were isolated from buffy coat blood by negative selection using the RosetteSep NK cell enrichment cocktail (Stem Cell Technologies, Vancouver, BC) prior to Ficoll-Hypaque (Fisher Scientific Co LLC, PA) density gradient centrifugation following the manufacturers' instructions. CD56+ NK cells were isolated to ˜85% purity, as determined by flow cytometry (BD Biosciences, CA). Ninety-six-well flat-bottom plates were coated with 100 μg/mL of human IgG (Sigma) overnight at 4° C. The next day, unbound IgG was washed away with cold 1× PBS. NK cells were then plated in the IgG-coated 96-well plates at 2×10^5 cells per well in 180 μL RPMI-1640 Media and 10 ng/mL of rhIL-2 (R & D Systems, MN) was added. […] Final DMSO concentrations were 0.25%. After 48 hours, the supernatants were harvested and analyzed by ELISA for IFN-γ production. […] The data are presented in two ways, (1) as the absolute amount if IFN-γ produced (pg/mL±SEM) and (2) as the percentage of the amount of IFN-γ produced in the presence of 1 μM pomalidomide.

[5] = test system: Rituximab coated lymphoma cells (WSU-DLCL2, Farage, DoHH2, Riva, Raji); test: ADCC assay: NK cell-mediated ADCC (LDH release); type: cell-based, human; conditions: 0.01 to 10 μM, 48 hours pretreatment, effector:target 10:1
Source text: NK cells from healthy donors were isolated from buffy coat blood by negative selection using the RosetteSep NK cell enrichment cocktail (Stem Cell Technologies, Vancouver, BC) prior to Ficoll-Hypaque (Fisher Scientific Co LLC, PA) density gradient centrifugation following the manufacturers' instructions. CD56+ NK cells were isolated to ˜85% purity, as determined by flow cytometry (BD Biosciences, CA). […] Various lymphoma cell lines (GCB-DLBCL: WSU-DLCL2 and Farage; Follicular lymphoma:DoHH2; ABC-DLBCL: Riva; Burkitt's lymphoma [BL]: Raji) were treated with 5 μg/mL rituximab for 30 minutes at 37° C. Unbound rituximab was washed off, target cells (5×103/100 μL/well) were added to the pretreated effector cells (NK cells) at a 10:1 ratio, and the two were co-incubated for 4 hours at 37° C. […] Using an aliquot of supernatant (50 μL), NK cell cytotoxicity against tumor cells was analyzed using a standard lactate dehydrogenease (LDH) release assay to measure ADCC (CytoTox 96 Non-Radioactive Cytoxicity Assay, Promega, WI). Spontaneous release by target cells alone was <15% of the maximum release, as determined with target cells lysed in 1% Triton X-100. […] The percentage of specific lysis was calculated according to the formula: Percentage specific lysis=100×(experimental−effector spontaneous−target spontaneous)/(target maximum−target spontaneous).

IgG production = IgG production in B cell differentiation assay (ELISA); type: cell-based; conditions: Homo sapiens
Description: (§5) Step 1—B cell Activation—day 0 through day 4: Prepare fresh B cell cocktail by adding 50 μg/mL of human transferrin to B cell media. (Iscoves +10% PFBS, 1% P/S, and 5 μg/mL human insulin). Filter required volume of media needed for experiment through a […] filter. Add B cell differentiation cocktail (final concentration): recombinant human IL-2 (20 U/mL), IL-10 (50 ng/mL), IL-15 (10 ng/mL), CD40 Ligand/TNFSFS/histidine-tagged (50 ng/mL), polyHistidine mouse IgG1 antibody (5 μg/mL), and ODN 2006-Human TLR9 ligand (10 μg/mL) to cells. Five milliliters (1×10^5/ml) of CD19+ B cell were added to each well of a 6 well flat-bottom plate (final cell count=5×10^5/well). Five μL (1×)±compound/DMSO was added to each test well (0.1% final DMSO) and incubated at 37° C. for 4 days.
(§6) Step 2—Plasmablast Generation—day 4 through day 7: Cells were harvested and counted on the cell counter; an aliquot was removed for flow analysis, the remaining cells were washed with PBS. […]
(§7) On day 7, cells were harvested and counted on the cell counter. […]
(§8) Supernatants (from section 8.4.3) were harvested and analyzed by ELISA for IgG and IgM production (ZeptoMetrix Corp. Buffalo, N.Y.).
(§9) The data was graphed using GraphPad Prism 5.0 software. […] The results for test compounds in the Ig assays were expressed as the percentage inhibition relative to control DMSO values.

IgM production = IgM production in B cell differentiation assay (ELISA); type: cell-based; conditions: Homo sapiens
Description: as §5, §6, §7, §8, §9

[6] = test system: bleomycin induced dermal fibrosis; test: Bleomycin induced dermal fibrosis mouse model, prevention of fibrosis; type: in vivo, DBA/2 mice; conditions: 30 mg/kg, PO, QD, p<0.0001
Description: Bleomycin was obtained from the pharmacy of the University of Erlangen-Nuremberg and freshly prepared once a week. Skin fibrosis was induced in 6-week-old DBA mice by local intracutaneous injections of 100 μl of bleomycin dissolved in 0.9% NaCl, at a concentration of 0.5 mg/ml, every other day in defined areas of 1.5 cm2 on the upper back.
In this model, a localized dermal fibrosis is induced by intradermal injections with bleomycin every other day for 3 weeks. […] To evaluate potential effects on prevention of fibrosis, treatment was initiated simultaneously with the first bleomycin injection. […]
Dermal thickness was determined by staining with hematoxylin and eosin and activated fibroblasts by using immunohistochemistry for alpha smooth mucle actin (α-SMA). […] Dermal thickness was analyzed with a Nikon Eclipse 80i microscope (Nikon, Badhoevedorp, The Netherlands) by measuring the maximal distance between the epidermal-dermal junction and the dermal-subcutaneous fat junction at 4 different skin sections in each mouse. […]
For quantification of myofibroblasts, skin sections were deparaffinized and incubated with 5% bovine serum albumin for 60 minutes. Cells positive for α-SMA were detected by incubation with monoclonal anti-α-SMA antibodies (clone 1A4; Sigma-Aldrich, Steinheim, Germany) for 2 hours at room temperature followed by incubation with 3% hydrogen peroxide for 10 minutes. […]

[7] = test system: bleomycin induced dermal fibrosis; test: Modified bleomycin induced dermal fibrosis mouse model, regression of established fibrosis; type: in vivo, DBA/2 mice; conditions: 30 mg/kg, PO, QD, p<0.0001
Description: Skin fibrosis was induced in 6-week-old DBA mice by local intracutaneous injections of 100 μl of bleomycin dissolved in 0.9% NaCl, at a concentration of 0.5 mg/ml, every other day in defined areas of 1.5 cm2 on the upper back.
Dermal thickness was determined by staining with hematoxylin and eosin and activated fibroblasts by using immunohistochemistry for alpha smooth mucle actin (α-SMA). […] Skin sections were stained with hematoxylin/eosin for better visualization of the tissue structure. Dermal thickness was analyzed with a Nikon Eclipse 80i microscope (Nikon, Badhoevedorp, The Netherlands) by measuring the maximal distance between the epidermal-dermal junction and the dermal-subcutaneous fat junction at 4 different skin sections in each mouse. The evaluation was performed by 2 independent examiners.

Structure (SMILES): Cc1ccc(NC(=O)c2ccc(CN3CCN(C)CC3)cc2)cc1Nc1nccc(-c2cccnc2)n1 [Imatinib mesylate]
anti-fibrotic effects in bleomycin induced dermal fibrosis [1]: potent anti-fibrotic effects

Structure (SMILES): Nc1cccc2c1C(=O)N(C1CCC(=O)NC1=O)C2=O (stereo not drawn) [pomalidomide]
average IL-10 enhancement (IL-10 [2]): 246.9%

IC50 (IL-8): > 10 µM | IC50 (IL-1β): 54 nM | IC50 (MIP-1β): > 10 µM | IC50 (TNF-α): 34 nM | EC50 (NK cell IFN-γ production; Homo sapiens, immobilized IgG and rhIL-2, 48 hours, maximal = IFN-γ produced with 1 μM pomalidomide, read-out: EC50, half-maximal IFN-γ production): 1.5 nM | IC50 (IgG production; SLE (n = 3)): 46 nM | IC50 (IgM production; SLE (n = 3)): 30 nM
Structure (SMILES): Cc1nc2cccc(N)c2c(=O)n1C1CCC(=O)NC1=O (stereo not drawn) [test compound, 3-(5-amino-2-methyl-4-oxoquinazolin-3(4H)-yl)piperidine-2,6-dione]
IL-2, IL-3, IL-5, IL-10, IL-13, GM-CSF, IFN-γ, RANTES, and TNF-α production in stimulated human T cells [3]: enhanced | increase of IL-5 production (IL-5; 0.01 μM): 3 fold | increase of IL-5 production (IL-5; 0.1 μM): 4 fold | IL-10 production (IL-10 [4]; at higher concentrations): inhibited enhancement of IL-10 production | IL-10 production (IL-10 [4]; at lower concentrations): enhanced IL-10 production | NK cell IFN-γ production (NK cell IFN-γ production; immobilized IgG and IL-2 stimulation): enhanced | NK cell-mediated ADCC [5]: induced dose-dependent NK cell-mediated ADCC in all cell lines | IC50 (IgG production; Normal (n = 3)): 61 nM | IC50 (IgM production; Normal (n = 3)): 23 nM | prevention of dermal thickening ([6]; three weeks): approximately 22±0.49% | reduction of number of α-SMA+ myofibroblasts in lesional skin [6]: 30±0.23% | reduction of bleomycin induced dermal thickening [7]: 22±0.28%
